Details of series [1]: key to Phase preferences, Physiological conditions: L, Lamellar; HII, hexagonal; M, micellar. The settings on record: liquid crystalline unsaturated lipids, cited from earlier work; for Phase preferences, Other conditions: conditions given in the cell.
Series [2] in a line: Rancimat accelerated oxidation test. Format: physicochemical. The method, then: To investigate this, accelerated oxidation tests of cannabis oil in the labile soybean oil with and without additional antioxidants were conducted. The Rancimat (Metrohm MG, Herisau, Switzerland) test was used for this purpose as follows. 2 g of oil were placed in a narrow glass flask, heated to 110° C. and air was bubbled through the oil at 20 ml/min. This caused accelerated oxidation. As the liquid oxidized, volatile secondary oxidation products were volatilized and bubbled into room temperature water. This caused them to dissolve in the water, which results in an increase in its electrical conductivity. The conductivity is measured continuously using a standard electrode.

The nature of series [3]: THC degradation on heating of cannabis oil films (gas-liquid chromatography). Particulars: dry films with 14 mg cannabis oil, 1.5 hours at 100° C.
Protocol: Five 1 ml chromatography glass vials were used for this purpose. […] Stock solutions of 0.5% sunflower lecithin (Sunlec25), 0.01% TBHQ and 0.5% lecithin+0.01% TBHQ were prepared.
The chloroform was evaporated under a stream of air until completely dry. […] After the heating period, samples were removed from the oven, allowed to cool to room temperature and then 1 ml of fresh chloroform was added to each vial and capped. Samples were then analyzed by gas-liquid chromatography as described previously. […] A 15 m×0.25 mm internal diameter fused silica column with a 0.20 μm DB5 film thickness was used (Agilent Inc., USA). The oven temperature was maintained at 80° C. for 5 minutes and then programmed to increase from 80 to 300° C. at 12° C./min. […] Split ratio was set at 10:1. Helium, the earlier gas, flowed at an average velocity of 25 cm/s. A flame ionization detector was set at 350° C. with 450 mL/min air and 50 mL/min helium flowing. The separated peaks were analyzed using Open LAB software (Agilent Technologies). The amount of cannabinoid was determined by comparing retention times of the peaks to an internal standard. Tor this analysis, the main THC peak was analyzed.

On to `CC(C)CCC[C@@H](C)[C@H]1CC[C@H]2[C@@H]3CC=C4C[C@@H](O)CC[C@]4(C)[C@H]3CC[C@]12C` [Cholesterol, cholesterol, reference compound], for which the “Phase preferences, Other conditions” value in series [1] was “Induces HII phase in mixed”. For `CC(C)(C)c1cc(O)ccc1O` [TBHQ, tert-butylhydroquinone], the “increase of induction time” value in series [2] (0.01% TBHQ added to soybean oil alone) came to 7.1 h. Also, the “induction time of oxidation” value in series [2] (0.01% TBHQ added to soybean oil containing 4.8 mg/g cannabis oil) was determined as 15.7 h; in series [2] (0.01% TBHQ added to soybean oil containing 0.5% sunflower lecithin and 4.8 mg/g cannabis oil) it was 28.8 h. Also, the “increase of induction time of oxidation for every 100 ppm TBHQ added” value in series [2] (soybean oil, 110° C.) fell in the range of 7.1 to 7.2 h. Take `CCCCCc1cc(O)c2c(c1)OC(C)(C)[C@@H]1CCC(C)=C[C@@H]21` [THC, tetrahydrocannabinol]: the “degradation of THC on heating” value in series [3] is reported as “significant degradation”. As for Cardiolipin, in series [1], the “Phase preferences, Physiological conditions” value is “L” and the “Phase preferences, Other conditions” value was “HII, divalent cations,”. Cerebroside: the “Phase preferences, Physiological conditions” value in series [1] is recorded as “L”.

As to Cerebroside sulfate, the “Phase preferences, Physiological conditions” value in series [1] is given as “L”. In the case of Digalactosyldiglyceride, the “Phase preferences, Physiological conditions” value in series [1] is listed as “L”. Turning to Diglucosyldiglyceride, in series [1], the “Phase preferences, Physiological conditions” value is “L”. As to Ganglioside, in series [1], the “Phase preferences, Physiological conditions” value was “M”.

Lysophosphatidylcholine: the “Phase preferences, Physiological conditions” value in series [1] is reported as “M”. Regarding Monogalactosyldiglyceride, the “Phase preferences, Physiological conditions” value in series [1] is given as “HII”. Consider Monoglucosyldiglyceride, for which, in series [1], the “Phase preferences, Physiological conditions” value is “HII”. In the case of Phosphatidic acid, in series [1], the “Phase preferences, Physiological conditions” value is given as “L” and the “Phase preferences, Other conditions” value is given as “HII, divalent cations,”. In the case of Phosphatidylcholine, in series [1], the “Phase preferences, Physiological conditions” value is “L”; the “Phase preferences, Other conditions” value is “HII low hydration and high”.

Regarding Phosphatidylethanolamine, in series [1], the “Phase preferences, Physiological conditions” value is on record as “HII” and the “Phase preferences, Other conditions” value is “L, pH ≥ 8.5 low temp”. For Phosphatidylglycerol, in series [1], the “Phase preferences, Physiological conditions” value was “L” and the “Phase preferences, Other conditions” value is recorded as “HII, high temp, high salt conc”. Regarding Phosphatidylinositol, the “Phase preferences, Physiological conditions” value in series [1] is recorded as “L”. For Phosphatidylserine, in series [1], the “Phase preferences, Physiological conditions” value is reported as “L” and the “Phase preferences, Other conditions” value is “HII, pH ≤ 3.5”.

Regarding Sphingomyelin, in series [1], the “Phase preferences, Physiological conditions” value is reported as “L”.

These data come from patent US12324800B2 (priority 2019, dated 2025).
